Measurements from US20240158446A1, “CYCLIC COMPOUND HAVING SELECTIVE INHIBITORY ACTION ON KRAS OVER HRAS AND NRAS” (CHUGAI SEIYAKU KABUSHIKI KAISHA, priority 2021, published 2024).
Where two headings read alike, the source gives them in different places.

Assays:
[1] = biological target: GDP-bound KRAS wild-type protein (Homo sapiens, UniProt P01116); test: Binding to KRAS by surface plasmon resonance (SPR), Single Cycle Kinetics
[2] = biological target: GDP-bound HRAS wild-type protein (Homo sapiens, UniProt P01112); test: Binding to HRAS by surface plasmon resonance (SPR), Single Cycle Kinetics; settings: for HRAS/KRAS (ratio of KD value for HRAS to KD value for KRAS): GDP-bound HRAS wild-type protein vs GDP-bound KRAS wild-type protein
Chain of GDP-bound HRAS wild-type protein (P01112 whole entry): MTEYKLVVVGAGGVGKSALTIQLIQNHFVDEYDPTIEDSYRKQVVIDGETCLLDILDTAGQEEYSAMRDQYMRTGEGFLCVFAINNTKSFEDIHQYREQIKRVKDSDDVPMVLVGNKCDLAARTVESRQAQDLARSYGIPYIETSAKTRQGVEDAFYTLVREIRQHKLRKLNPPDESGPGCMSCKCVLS

[3] = biological target: GDP-bound NRAS wild-type protein (Homo sapiens, UniProt P01111); test: Binding to NRAS by surface plasmon resonance (SPR), Single Cycle Kinetics; settings: for NRAS/KRAS (ratio of KD value for NRAS to KD value for KRAS): GDP-bound NRAS wild-type protein vs GDP-bound KRAS wild-type protein
Chain of GDP-bound NRAS wild-type protein (P01111 whole entry): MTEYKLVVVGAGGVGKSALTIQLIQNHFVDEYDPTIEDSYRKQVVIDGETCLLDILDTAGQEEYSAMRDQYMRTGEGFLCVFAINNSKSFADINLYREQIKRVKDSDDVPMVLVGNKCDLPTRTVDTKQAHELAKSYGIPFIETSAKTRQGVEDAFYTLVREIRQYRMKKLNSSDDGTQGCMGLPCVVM

[4] = system: human lung cancer strain NCI-H441;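 also: cell proliferation inhibition after four days measured by CellTiter-Glo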
[5] = SPR, Single Cycle Kinetics, GDP-bound KRAS wild-type protein, read-out: KRAS KD
[6] = SPR, Single Cycle Kinetics, 1:1 binding model, GDP-bound KRAS wild-type protein, read-out: KRAS KD

Chain of GDP-bound KRAS wild-type protein (P01116 whole entry): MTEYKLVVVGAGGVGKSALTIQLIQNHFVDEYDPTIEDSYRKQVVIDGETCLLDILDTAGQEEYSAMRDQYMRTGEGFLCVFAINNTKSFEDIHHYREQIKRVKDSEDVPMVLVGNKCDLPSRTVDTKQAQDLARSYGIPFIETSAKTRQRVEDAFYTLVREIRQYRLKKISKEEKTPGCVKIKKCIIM

Structure (SMILES)	Kd [1, 6] [nM]	IC50 [4] [nM]	HRAS/KRAS (ratio of KD value for HRAS to KD value for KRAS) ([2]; SPR, KD ratio class)	NRAS/KRAS (ratio of KD value for NRAS to KD value for KRAS) ([3]; SPR, KD ratio class)	also measured
CCC[C@H]1C(=O)N[C@@H]([C@@H](C)CC)C(=O)N(C)CC(=O)N(C)[C@H]2C/C=C\CCN(C2=O)[C@@H](Cc2ccc(C(F)(F)F)cc2)C(=O)N(C)CC(=O)N[C@@H](CCc2ccc(C(F)(F)F)c(OC)c2)C(=O)N2C[C@H](OCC)C[C@H]2C(=O)N(C)C2(CCC2)C(=O)N(C)[C@@H](C2CCCC2)C(=O)N(C)[C@H](C(=O)N2CCCC2)CC(=O)N1C [PP3105, (2S,8S,12R,14S,20S,23S,27S,30S,36S,38Z)-20-cyclopentyl-12-ethoxy-8-[2-[3-methoxy-4-(trifluoromethyl)phenyl]ethyl]-4,16,19,22,26,32,35-heptamethyl-30-[(1S)-1-methylpropyl]-27-propyl-23-(pyrrolidine-1-carbonyl)-2-[[4-(trifluoromethyl)phenyl]methyl]spiro[1,4,7,10,16,19,22,26,29,32,35-undecazatricyclo[34.5.1.0^10,14]dotetracont-38-ene-17,1′-cyclobutane]-3,6,9,15,18,21,25,28,31,34,42-undecone]	–	–	–	–	Kd ([1]; SPR, Single Cycle Kinetics, 1:1 binding model, read-out: KD value with respect to GDP-bound KRAS wild-type protein): 0.06 nM; Kd [1, 5]: 0.06 nM; HRAS/KRAS (ratio of KD value for HRAS to KD value for KRAS) ([2]; SPR): A (a compound having 10 or more and less than 20 is denoted as A); ratio of the KD value with respect to GDP-bound HRAS wild-type protein to the KD value with respect to KRAS ([2]; SPR, KD(HRAS)/KD(KRAS)): A (a compound having 10 or more and less than 20 is denoted as A); NRAS/KRAS (ratio of KD value for NRAS to KD value for KRAS) ([3]; SPR): AA (a compound having 20 or more is denoted as AA); ratio of the KD value with respect to GDP-bound NRAS wild-type protein to the KD value with respect to KRAS ([3]; SPR, KD(NRAS)/KD(KRAS)): AA (a compound having 20 or more is denoted as AA); IC50 ([4]; read-out: NCI-H441 cell proliferation inhibitory activity, 50% proliferation inhibitory concentration (IC50 value), NCI-H441, four days, CellTiter-Glo): 2.5 nM
CCO[C@@H]1C[C@H]2C(=O)NC3(CCCC3)C(=O)N(C)[C@@H](C3CCCC3)C(=O)N(C)[C@H](C(=O)N(C)C)CC(=O)N(C)[C@@H](CC)C(=O)N[C@@H]([C@@H](C)CC)C(=O)N(C)CC(=O)N(C)[C@H]3CC[C@@H](C)CN(C3=O)[C@@H](Cc3ccc(C(F)(F)F)cc3)C(=O)N(C)CC(=O)N[C@@H](CCc3ccc(C(F)(F)F)c(Cl)c3)C(=O)N2C1 [PP1376]	0.037	3.5	B (a compound having 3 or more and less than 10 is denoted as B)	B (a compound having 3 or more and less than 10 is denoted as B)	–
CCO[C@@H]1C[C@H]2C(=O)NC3(CCC3)C(=O)N(C)[C@@H](C(CC)CC)C(=O)N(C)[C@H](C(=O)N(C)C)CC(=O)N(C)[C@@H](CC3CC3)C(=O)N[C@@H]([C@@H](C)CC)C(=O)N(C)CC(=O)N(C)[C@H]3C/C=C\CCN(C3=O)[C@@H](Cc3ccc(C(F)(F)F)cc3)C(=O)N(C)CC(=O)N[C@@H](CCc3ccc(Cl)c(Cl)c3)C(=O)N2C1 [PP1219]	0.35	21.4	A (a compound having 10 or more and less than 20 is denoted as A)	AA (a compound having 20 or more is denoted as AA)	–
CC[C@H](C)[C@@H]1NC(=O)[C@H](COC)N(C)C(=O)C[C@@H](C(=O)N(C)C)N(C)C(=O)[C@H](C2CCCCC2)N(C)C(=O)C2(CC(C)(C)C2)NC(=O)[C@@H]2C[C@@H](OC3CCC3)CN2C(=O)[C@H](CCc2cc(F)c(C(F)(F)F)c(F)c2)NC(=O)CN(C)C(=O)[C@H](Cc2ccc(C(F)(F)F)cc2)N2CC/C=C\C[C@@H](C2=O)N(C)C(=O)CN(C)C1=O [PP2655]	–	17	–	–	Kd ([1]; SPR Single Cycle Kinetics, GDP-bound KRAS wild-type protein, 1:1 binding model, read-out: KRAS KD): 0.1 nM; HRAS/KRAS (ratio of KD value with respect to GDP-bound HRAS wild-type protein to KD value with respect to KRAS) ([2]; SPR KD ratio HRAS/KRAS, class symbols): A (a compound having 10 or more and less than 20 is denoted as A); NRAS/KRAS (ratio of KD value with respect to GDP-bound NRAS wild-type protein to KD value with respect to KRAS) ([3]; SPR KD ratio NRAS/KRAS, class symbols): AA (a compound having 20 or more is denoted as AA)
CCO[C@@H]1C[C@H]2C(=O)NC3(CCC3)C(=O)N(C)[C@@H](C3CCCC3)C(=O)N(C)[C@H](C(=O)N(C)C)CC(=O)N(C)[C@@H](CC(F)F)C(=O)N[C@@H]([C@@H](C)CC)C(=O)N(C)CC(=O)N(C)[C@H]3CCCCCN(C3=O)[C@@H](Cc3ccc(F)cc3)C(=O)N(C)CC(=O)N[C@@H](CCc3cc(F)c(C(F)(F)F)c(F)c3)C(=O)N2C1 [PP1191]	–	13	–	–	Kd [1, 5]: 0.056 nM; HRAS/KRAS (ratio of KD value for HRAS to KD value for KRAS) ([2]; SPR): B (a compound having 3 or more and less than 10 is denoted as B); NRAS/KRAS (ratio of KD value for NRAS to KD value for KRAS) ([3]; SPR): A (a compound having 10 or more and less than 20 is denoted as A)
CCO[C@@H]1C[C@H]2C(=O)NC3(CCC3)C(=O)N(C)[C@@H](C3CCCC3)C(=O)N(C)[C@H](C(=O)N3CCCCC3)CC(=O)N(C)[C@@H](C)C(=O)N[C@@H]([C@@H](C)CC)C(=O)N(C)CC(=O)N(C)[C@H]3C/C=C\CCN(C3=O)[C@@H](Cc3ccc(C(F)(F)F)cc3)C(=O)N(C)CC(=O)N[C@@H](CCc3cc(F)c(C(F)(F)F)c(F)c3)C(=O)N2C1 [PP1292]	0.16	24.6	A (a compound having 10 or more and less than 20 is denoted as A)	A (a compound having 10 or more and less than 20 is denoted as A)	–
CCCC[C@H]1C(=O)N[C@@H]([C@@H](C)CC)C(=O)N(C)CC(=O)N(C)[C@H]2C/C=C\CCN(C2=O)[C@@H](Cc2ccc(C(F)(F)F)cc2)C(=O)N(C)CC(=O)N[C@@H](CCc2ccc(C(F)(F)F)c(OC)c2)C(=O)N2C[C@H](OCC)C[C@H]2C(=O)NC2(CC(C)(C)C2)C(=O)N(C)[C@@H](C2CCCC2)C(=O)N(C)[C@H](C(=O)N(C)C)CC(=O)N1C [PP1561]	0.064	2.7	B (a compound having 3 or more and less than 10 is denoted as B)	A (a compound having 10 or more and less than 20 is denoted as A)	–

Continued by falling IC50 [4], values first:

Kd [1, 6] [nM]	IC50 [4] [nM]	Structure (SMILES)	HRAS/KRAS (ratio of KD value for HRAS to KD value for KRAS) ([2]; SPR, KD ratio class)	NRAS/KRAS (ratio of KD value for NRAS to KD value for KRAS) ([3]; SPR, KD ratio class)	also measured
1.4	309	CCO[C@@H]1C[C@H]2C(=O)NC3(CCC3)C(=O)N(C)[C@@H](C3CCCC3)C(=O)N(C)[C@H](C(=O)N(C)C)CC(=O)N(C)[C@@H](CC3CC3)C(=O)N[C@@H]([C@@H](C)CC)C(=O)N(C)CC(=O)N(C)[C@H]3C/C=C\CCN(C3=O)[C@@H](Cc3ccc(F)cc3C)C(=O)N(C)CC(=O)N[C@@H](CCc3cc(F)c(Cl)c(F)c3)C(=O)N2C1 [PP1477]	B (a compound having 3 or more and less than 10 is denoted as B)	A (a compound having 10 or more and less than 20 is denoted as A)	–
0.46	44.4	CCO[C@@H]1C[C@H]2C(=O)NC3(CCC3)C(=O)N(C)[C@@H](C(CC)CC)C(=O)N(C)[C@H](C(=O)N(C)C)CC(=O)N(C)[C@@H](CC(C)C)C(=O)N[C@@H]([C@@H](C)CC)C(=O)N(C)CC(=O)N(C)[C@H]3C/C=C\CCN(C3=O)[C@@H](CC3CCC(F)(F)CC3)C(=O)N(C)CC(=O)N[C@@H](CCc3cc(F)c(C(F)(F)F)c(F)c3)C(=O)N2C1 [PP1433]	A (a compound having 10 or more and less than 20 is denoted as A)	AA (a compound having 20 or more is denoted as AA)	–
0.14	4.4	CCO[C@@H]1C[C@H]2C(=O)NC3(CCC3)C(=O)N(C)[C@@H](C3CCCC3)C(=O)N(C)[C@H](C(=O)N3CCCC3)CC(=O)N(C)[C@@H](CC3CCC3)C(=O)N[C@@H]([C@@H](C)CC)C(=O)N(C)CC(=O)N(C)[C@H]3C/C=C\CCN(C3=O)[C@@H](Cc3ccc(C(F)(F)F)cc3)C(=O)N(C)CC(=O)N[C@@H](CCc3cc(F)c(C(F)(F)F)c(F)c3)C(=O)N2C1 [PP1423]	A (a compound having 10 or more and less than 20 is denoted as A)	AA (a compound having 20 or more is denoted as AA)	–
